This is an account of results in patent US9387204B2, “Fused bicyclic imidazoles” (BAYER INTELLECTUAL PROPERTY GmbH, priority 2007, dated 2016).

SMILES strings stand for the structures.

The test system of the first data set is A549 cells. Put plainly: Cellular proliferation/cytotoxicity assay (Alamar Blue), A549 cells. The conditions noted are these: Homo sapiens, A549, 72 h, read-out: Anti-proliferative/Cytotoxic activity (A549 cells). For orientation: The colour change of resazurin is a common sign of viable cells or microbes.
Procedure: The anti-proliferative activity of the compounds as described herein, is evaluated using the OvCAR3, HCT116 and A549 cell lines and the Alamar Blue (Resazurin) cell viability assay (O'Brien et al. Eur J Biochem 267, 5421-5426, 2000). Resazurin is reduced to the fluorescent resorufin by cellular dehydrogenase activity, correlating with viable, proliferating cells. Test compounds are dissolved as 10 mM solutions in DMSO and subsequently diluted. Cells like HCT116 or A549 cells were seeded into 96 well flat bottom plates at a density of 10000 cells/well (OvCAR3 cells), 1000 cells/well (HCT116 cells) or 2000 cells/well (A549 cells) in a volume of 200 μl/well. 24 hours after seeding, 1 μl each of the compound dilutions are added into each well of the 96 well plates. Each compound dilution is tested as at least as duplicates. Wells containing untreated control cells were filled with 200 μl DMEM (Dulbecco's Modified Eagle Medium) containing 0.5 vol % v:v DMSO. The cells are then incubated with the substances for 72 h at 37° C. in a humidified atmosphere containing 5 vol % CO2. To determine the viability of the cells, 20 μl of a Resazurin solution (90 mg/l) are added. After 4 h incubation at 37° C., the fluorescence is measured by extinction at ? =544 nm and an emission of ? =590 nm (Wallac Victor2; Perkin Elmer, USA). For the calculation of the cell viability, the emission value from untreated cells is set as 100% viability and the fluorescence intensity of treated cells are set in relation to the values of untreated cells. Viabilities are expressed as % values. The corresponding IC50 values of the compounds for cytotoxic activity are determined from the concentration-effect curves by means of non-linear regression. The analysis of the data is performed using a biostatistical program (Graph Pad Prism, USA).
In the case of `Clc1ccn2c(-c3ccccc3)c(-c3ccc(CN4CCC(c5nnc(-c6ccccc6)[nH]5)CC4)cc3)nc2c1` [Example 120, 7-chloro-3-phenyl-2-(4-{[4-(5-phenyl-4H-1,2,4-triazol-3-yl)piperidin-1-yl]methyl}phenyl)imidazo[1,2-a]pyridine], the IC50 is under 10 µM. With `c1ccc(-c2c(-c3ccc(CN4CCC(c5nc(-c6cnccn6)no5)CC4)cc3)nc3ncccn23)cc1` [Example 4, 3-phenyl-2-(4-{[4-(3-pyrazin-2-yl-1,2,4-oxadiazol-5-yl)piperidin-1-yl]methyl}phenyl)imidazo[1,2-a]pyrimidine], the IC50 was over 10 µM. On the same count and under the same terms, in the case of `c1ccc(-c2c(-c3ccc(CN4CCC(c5n[nH]c(-c6ccccn6)n5)CC4)cc3)nc3ccccn23)cc1` [Example 2, 3-phenyl-2-(4-{[4-(5-pyridin-2-yl-1H-1,2,4-triazol-3-yl)piperidin-1-yl]methyl}phenyl)imidazo[1,2-a]pyridine] it was under 10 µM. The same measure, in the same setting: under `c1ccc(-c2nnc(C3CCN(Cc4ccc(-c5nc6ncccn6c5-c5ccccc5)cc4)CC3)[nH]2)cc1` [Example 121, 3-phenyl-2-(4-{[4-(5-phenyl-4H-1,2,4-triazol-3-yl)piperidin-1-yl]methyl}phenyl)imidazo[1,2-a]pyrimidine] stands under 10 µM; under `COc1ccc(-c2c(-c3ccc(CN4CCC(c5n[nH]c(-c6ccccn6)n5)CC4)cc3)nc3ncccn23)cc1` [Example 20, 3-(4-methoxyphenyl)-2-(4-{[4-(5-pyridin-2-yl-1,2,4-triazol-3-yl)piperidin-1-yl]methyl}phenyl)imidazo[1,2-a]pyrimidine], over 10 µM; under `c1ccc(-c2nc(C3CCN(Cc4ccc(-c5nc6ncccn6c5-c5nccs5)cc4)CC3)n[nH]2)nc1` [Example 39, 2-(4-{[4-(5-pyridin-2-yl-1,2,4-triazol-3-yl)piperidin-1-yl]methyl}phenyl)-3-(1,3-thiazol-2-yl)imidazo[1,2-a]pyrimidine], over 10 µM.

Consider `CSc1nn2c(-c3ccccc3)c(-c3ccc(CN4CCC(c5nnc(-c6ccccn6)[nH]5)CC4)cc3)nc2s1` [Example 47, 2-(methylsulfanyl)-5-phenyl-6-[4-({4-[5-(pyridin-2-yl)-4H-1,2,4-triazol-3-yl]piperidin-1-yl}methyl)phenyl]imidazo[2,1-b][1,3,4]thiadiazole], for which the IC50 is over 10 µM. The same measure, in the same setting: in the case of `NC(=O)c1ccn2c(-c3ccccc3)c(-c3ccc(CN4CCC(c5n[nH]c(-c6ccccn6)n5)CC4)cc3)nc2c1` [Example 38, 3-phenyl-2-(4-{[4-(5-pyridin-2-yl-1,2,4-triazol-3-yl)piperidin-1-yl]methyl}phenyl)imidazo[1,2-a]pyridine-7-carboxamide] it was over 10 µM. With `c1ccc(-c2nc(C3CCN(Cc4ccc(-c5nc6ccccn6c5-c5cccs5)cc4)CC3)n[nH]2)nc1` [Example 17, 2-(4-{[4-(5-pyridin-2-yl-1,2,4-triazol-3-yl)piperidin-1-yl]methyl}phenyl)-3-(2-thienyl)imidazo[1,2-a]pyridine], the IC50 is under 10 µM.

As for `Clc1ccn2c(-c3ccccc3)c(-c3ccc(CN4CCC(c5nnc(-c6cccs6)[nH]5)CC4)cc3)nc2c1` [Example 103, 7-chloro-3-phenyl-2-[4-({4-[5-(2-thienyl)-4H-1,2,4-triazol-3-yl]piperidin-1-yl}methyl)phenyl]imidazo[1,2-a]pyridine], the IC50 is under 10 µM. For the compound `Fc1ccc(-c2c(-c3ccc(CN4CCC(c5n[nH]c(-c6ccccn6)n5)CC4)cc3)nc3ccccn23)cc1` [Example 9, 3-(4-fluorophenyl)-2-(4-{[4-(5-pyridin-2-yl-1,2,4-triazol-3-yl)piperidin-1-yl]methyl}phenyl)imidazo[1,2-a]pyridine], the IC50 was under 10 µM.

Take `Clc1cnc2nc(-c3ccc(CN4CCC(c5n[nH]c(-c6ccccn6)n5)CC4)cc3)c(-c3ccccc3)n2c1` [Example 21, 6-chloro-3-phenyl-2-(4-{[4-(5-pyridin-2-yl-1,2,4-triazol-3-yl)piperidin-1-yl]methyl}phenyl)imidazo[1,2-a]pyrimidine]: the IC50 is under 10 µM. Same read-out and setting: under `c1ccc(-c2nc(C3CCN(Cc4ccc(-c5nc6ncccn6c5-c5cccs5)cc4)CC3)n[nH]2)nc1` [Example 35, 2-(4-{[4-(5-pyridin-2-yl-1,2,4-triazol-3-yl)piperidin-1-yl]methyl}phenyl)-3-(2-thienyl)imidazo[1,2-a]pyrimidine] stands over 10 µM.

The same data set, now with this note: read-out: Anti-proliferative/Cytotoxic activity (A549 cells); A549 cells, 72 h, Alamar Blue (Resazurin).
For `Cc1ccc(-c2nnc(C3CCN(Cc4ccc(-c5nc6cc(C#N)ccn6c5-c5ccccc5)cc4)CC3)[nH]2)nc1` [Example 72, ′2-[4-({4-[5-(5-methylpyridin-2-yl)-4H-1,2,4-triazol-3-yl]piperidin-1-yl}methyl)phenyl]-3-phenylimidazo[1,2-a]pyridine-7-carbonitrile], the IC50 was under 10 µM.

With `c1ccc(-c2c(-c3ccc(CN4CCC(c5cc(-c6ccccn6)n[nH]5)CC4)cc3)nc3ccccn23)cc1` [Example 111, ′3-phenyl-2-(4-{[4-(3-pyridin-2-yl-1H-pyrazol-5-yl)piperidin-1-yl]methyl}phenyl)imidazo[1,2-a]pyridine], the IC50 was under 10 µM. As to `O=C(O)c1cn2c(-c3ccccc3)c(-c3ccc(CN4CCC(c5nnc(-c6ccccn6)[nH]5)CC4)cc3)nc2s1` [Example 127, ′5-phenyl-6-(4-{[4-(5-pyridin-2-yl-4H-1,2,4-triazol-3-yl)piperidin-1-yl]methyl}phenyl)imidazo[2,1-b][1,3]thiazole-2-carboxylic acid], the IC50 was over 10 µM. Still for that read-out and setting: under `Cc1ccc2nc(-c3ccc(CN4CCC(c5nnc(-c6ccc[nH]6)[nH]5)CC4)cc3)c(-c3ccccc3)n2n1` [Example 104, ′6-methyl-3-phenyl-2-[4-({4-[5-(1H-pyrrol-2-yl)-4H-1,2,4-triazol-3-yl]piperidin-1-yl}methyl)phenyl]imidazo[1,2-b]pyridazine] stands under 10 µM; under `Cc1cccc(-c2nnc(C3CCN(Cc4ccc(-c5nc6scnn6c5-c5ccccc5)cc4)CC3)[nH]2)n1` [Example 67, ′6-[4-({4-[5-(6-methylpyridin-2-yl)-4H-1,2,4-triazol-3-yl]piperidin-1-yl}methyl)phenyl]-5-phenylimidazo[2,1-b][1,3,4]thiadiazole], under 10 µM; under `Cc1ccc2nc(-c3ccc(CN4CCC(c5nnc(-c6cccs6)[nH]5)CC4)cc3)c(-c3ccccc3)n2n1` [Example 99, ′6-methyl-3-phenyl-2-[4-({4-[5-(2-thienyl)-4H-1,2,4-triazol-3-yl]piperidin-1-yl}methyl)phenyl]imidazo[1,2-b]pyridazine], under 10 µM.

On to `N#Cc1cc2nc(-c3ccc(CN4CCC(c5nnc(-c6ccccn6)[nH]5)CC4)cc3)c(-c3ccccc3)n2cc1Br` [Example 52, ′6-bromo-3-phenyl-2-(4-{[4-(5-pyridin-2-yl-4H-1,2,4-triazol-3-yl)piperidin-1-yl]methyl}phenyl)imidazo[1,2-a]pyridine-7-carbonitrile], for which the IC50 was over 10 µM. Same read-out and setting: under `c1ccc(-c2c(-c3ccc(CN4CCC(c5n[nH]c(-c6nccs6)n5)CC4)cc3)nc3ncccn23)cc1` [Example 84, ′3-phenyl-2-[4-({4-[5-(1,3-thiazol-2-yl)-1H-1,2,4-triazol-3-yl]piperidin-1-yl}methyl)phenyl]imidazo[1,2-a]pyrimidine] stands over 10 µM; under `c1ccc(-c2c(-c3ccc(CN4CCC(c5nnc(-c6ccco6)[nH]5)CC4)cc3)nc3scnn23)cc1` [Example 94, ′6-[4-({4-[5-(2-furyl)-4H-1,2,4-triazol-3-yl]piperidin-1-yl}methyl)phenyl]-5-phenylimidazo[2,1-b][1,3,4]thiadiazole], under 10 µM; under `c1ccc(-c2c(-c3ccc(CN4CCC(c5nnc(-c6ccco6)[nH]5)CC4)cc3)nc3ccccn23)cc1` [Example 91, ′2-[4-({4-[5-(2-furyl)-4H-1,2,4-triazol-3-yl]piperidin-1-yl}methyl)phenyl]-3-phenylimidazo[1,2-a]pyridine], under 10 µM.

Consider `c1ccc(-c2c(-c3ccc(CN4CCC(c5nnc(-c6ccc[nH]6)[nH]5)CC4)cc3)nc3scnn23)cc1` [Example 108, ′5-phenyl-6-[4-({4-[5-(1H-pyrrol-2-yl)-4H-1,2,4-triazol-3-yl]piperidin-1-yl}methyl)phenyl]imidazo[2,1-b][1,3,4]thiadiazole], for which the IC50 was under 10 µM.

Regarding `Clc1ccc(-c2nnc(C3CCN(Cc4ccc(-c5nc6ncccn6c5-c5ccccc5)cc4)CC3)[nH]2)nc1` [Example 76, ′2-[4-({4-[5-(5-chloropyridin-2-yl)-4H-1,2,4-triazol-3-yl]piperidin-1-yl}methyl)phenyl]-3-phenylimidazo[1,2-a]pyrimidine], the IC50 is under 10 µM.

`Cc1ccc(-c2nnc(C3CCN(Cc4ccc(-c5nc6sccn6c5-c5ccccc5)cc4)CC3)[nH]2)nc1` [Example 73, ′6-[4-({4-[5-(5-methylpyridin-2-yl)-4H-1,2,4-triazol-3-yl]piperidin-1-yl}methyl)phenyl]-5-phenylimidazo[2,1-b][1,3]thiazole]: the IC50 was under 10 µM. The same measure, in the same setting: in the case of `c1ccc(-c2c(-c3ccc(CN4CCC(c5n[nH]c(-c6ncccn6)n5)CC4)cc3)nc3ncccn23)cc1` [Example 79, ′3-phenyl-2-(4-{[4-(5-pyrimidin-2-yl-1H-1,2,4-triazol-3-yl)piperidin-1-yl]methyl}phenyl)imidazo[1,2-a]pyrimidine] it was over 10 µM; in that of `N#Cc1ccn2c(-c3ccccc3)c(-c3ccc(CN4CCC(c5nnc(-c6nccs6)[nH]5)CC4)cc3)nc2c1` [Example 89, ′3-phenyl-2-[4-({4-[5-(1,3-thiazol-2-yl)-4H-1,2,4-triazol-3-yl]piperidin-1-yl}methyl)phenyl]imidazo[1,2-a]pyridine-7-carbonitrile], under 10 µM; in that of `N#Cc1ccn2c(-c3ccccc3)c(-c3ccc(CN4CCC(c5nnc(-c6ccc[nH]6)[nH]5)CC4)cc3)nc2c1` [Example 110, ′3-phenyl-2-[4-({4-[5-(1H-pyrrol-2-yl)-4H-1,2,4-triazol-3-yl]piperidin-1-yl}methyl)phenyl]imidazo[1,2-a]pyridine-7-carbonitrile], under 10 µM.
